According to paper PMC9604400, “Synthesis, Anticancer and Antitubercular Properties of New Chalcones and Their Nitrogen-Containing Five-Membered Heterocyclic Hybrids Bearing Sulfonamide Moiety” (International Journal of Molecular Sciences, 2022):
Values after ≈ are worked out from the molar mass of the structure shown. Marks after values point to notes of the source that are not given here.

What was measured:
Experiment in all cases: microbe, parasite or virus in culture
[1] = tested on: M. tuberculosis Orphan strain; type: cell-based; conditions: Mycobacterium tuberculosis
M. tuberculosis Haarlem = type: cell-based; conditions: Mycobacterium tuberculosis
[2] = tested on: M. tuberculosis LAM9 SIT 42; type: cell-based, Mycobacterium tuberculosis
M. tuberculosis Beijing = type: cell-based; conditions: Mycobacterium tuberculosis
[3] = tested on: M. tuberculosis ATCC 35822; type: cell-based; conditions: Mycobacterium tuberculosis, ATCC35822
[4] = tested on: M. tuberculosis ATCC 35838; type: cell-based, Mycobacterium tuberculosis
[5] = Mycobacterium tuberculosis, LAM9SIT42, c. M. tuberculosis LAM9 SIT 42
[6] = Mycobacterium tuberculosis, ATCC35838, f. M. tuberculosis ATCC 35838 (rifampicin-resistant)
[7] = f. M. tuberculosis ATCC 35838 (rifampicin-resistant)

| SMILES | MIC [1] | MIC (M. tuberculosis Haarlem) | MIC [2, 5] | MIC ([2]; c. M. tuberculosis LAM9 SIT 42) | MIC (M. tuberculosis Beijing) | MIC [3] | MIC [4, 6] | MIC [4, 7] |
| --- | --- | --- | --- | --- | --- | --- | --- | --- |
| COc1cc(OC)c(S(=O)(=O)NNC(=O)c2ccncc2)cc1C(=O)/C=C/c1cc(OC)c(OC)c(OC)c1 [Compound 20e, (E)-N’-Isonicotinoyl-2,4-dimethoxy-5-(3-(3,4,5-trimethoxyphenyl)acryloyl)benzenesulfonohydrazide] | > 18 µM | > 18 µM | 8.97 µM (≈ 5 µg/mL) | <9.0 * µM | < 9 µM | > 18 µM | < 12 µM | <9.0 * µM |
| COc1cc(OC)c(S(N)(=O)=O)cc1C(=O)C=Cc1ccccc1 [Compound 17a, 5-Cinnamoyl-2,4-dimethoxybenzenesulfonamide] | 29 µM (≈ 10.1 µg/mL) | > 29 µM | > 29 µM | – | 29 µM (≈ 10.1 µg/mL) | > 29 µM | 29 µM (≈ 10.1 µg/mL) | – |
| COc1cc(OC)c(S(=O)(=O)NNC(=O)c2ccncc2)cc1C(=O)/C=C/c1ccc2c(c1)OCO2 [Compound 20f, (E)-5-(3-(Benzo[d][1,3]dioxol-5-yl)acryloyl)-N’-isonicotinoyl-2,4-dimethoxybenzenesulfonohydrazide] | > 20 µM | > 20 µM | 9.77 µM (≈ 5 µg/mL) | <10 µM | 20 µM (≈ 10.2 µg/mL) | > 20 µM | < 12 µM | <10 * µM |
| C[C@H]1COc2c(N3CCN(C)CC3)c(F)cc3c(=O)c(C(=O)O)cn1c23 [Levofloxacin, levofloxacin, reference compound] | 2.8 µM (≈ 1.01 µg/mL) | 2.8 µM (≈ 1.01 µg/mL) | 2.8 µM (≈ 1.01 µg/mL) | – | 2.8 µM (≈ 1.01 µg/mL) | 2.8 µM (≈ 1.01 µg/mL) | 2.8 µM (≈ 1.01 µg/mL) | – |
| COc1cc(OC)c(S(N)(=O)=O)cc1C(=O)/C=C/c1ccc2c(c1)OCO2 [Compound 17f, (E)-5-(3-(Benzo[d][1,3]dioxol-5-yl)acryloyl)-2,4-dimethoxybenzenesulfonamide] | > 2 µM | > 2 µM | > 2 µM | – | > 2 µM | > 25 µM | > 25 µM | – |
| COc1ccc(/C=C/C(=O)c2ccc(OC)c(S(=O)(=O)NNC(=O)c3ccncc3)c2)cc1 [Compound 19d, (E)-N’-Isonicotinoyl-2-methoxy-5-(3-(4-methoxyphenyl)acryloyl)benzenesulfonohydrazide] | 21 µM (≈ 9.82 µg/mL) | > 21 µM | 21 µM (≈ 9.82 µg/mL) | – | 21 µM (≈ 9.82 µg/mL) | > 21 µM | 21 µM (≈ 9.82 µg/mL) | – |
| COc1ccc(/C=C/C(=O)c2cc(S(=O)(=O)NNC(=O)c3ccncc3)c(OC)cc2OC)cc1 [Compound 20d, (E)-N’-Isonicotinoyl-2,4-dimethoxy-5-(3-(4-methoxyphenyl)acryloyl)benzenesulfonohydrazide] | > 20 µM | > 20 µM | > 20 µM | – | > 20 µM | > 20 µM | 20 µM (≈ 9.95 µg/mL) | – |
| COc1ccc(C(=O)C=Cc2ccccc2)cc1S(=O)(=O)NNC(=O)c1ccncc1 [Compound 19a, 5-Cinnamoyl-N’-isonicotinoyl-2-methoxybenzenesulfonohydrazide] | > 23 µM | > 23 µM | 23 µM (≈ 10.1 µg/mL) | – | 23 µM (≈ 10.1 µg/mL) | > 23 µM | < 12 µM | <11 µM |
| COc1cc(OC)c(S(=O)(=O)NNC(=O)c2ccncc2)cc1C(=O)C=Cc1ccccc1 [Compound 20a, 5-Cinnamoyl-N’-isonicotinoyl-2,4-dimethoxybenzenesulfonohydrazide] | > 21 µM | > 21 µM | 21 µM (≈ 9.82 µg/mL) | – | < 11 µM | > 21 µM | < 12 µM | <11 * µM |
